SMILES strings stand for the structures. ≈ marks a conversion by molar mass, not a printed value. Read-outs that look alike come from different tables or passages of the source. Square brackets hold non-standard residues; d marks the D form. Peptide text beside a SMILES is read from it. Ahx = NCCCCCC(=O)O

As usually defined, the IC50 is the midpoint of a concentration-inhibition curve.

The test system of this experiment is Enterobacter. Type of experiment: cell-based. The procedure:
The IC50 is determined by an essay, suitable for the specific film-forming microorganism in question. For example, in the present invention, the Enterobacter assay, which is described in detail in the methods section below, was used to determine the antimicrobial activities of the tested peptides.
Quantitative Biofilm Growth Inhibition Assay in a 96-Wells Microtiter Plate:
Enterobacter culture (50 ml) was grown in tryptic soy broth media (TBS; prepared according to manufacturer instructions) overnight at 25° C. On the next day the turbidity of the culture was measured at 600 nm (Biomate 5 UV-Vis spectrophotometer, Thermo Fisher Scientific, Waltham, Mass.) and, if necessary, TSB was added to dilute the culture until the OD was 1.
Then 96 wells polystyrene microtiter plates (flat bottom, transparent, Becton Dickinson, Franklin Lakes, New-Jersey) were filled as following: Negative control wells (without bacteria) were filled with 125 μl TSB media and 25 μl of DDW:PBS1:1 buffer solution; Positive control wells (without peptide solution) were filled with 110 μl TSB media, 25 μl of DDW:PBS1:1 buffer solution and 15 μl of Enterobacter culture solution; Wells that contained AMPs at different concentrations were filled with 110 μl TSB media, 25 μl of peptide solution and 15 μl of Enterobacter culture solution.
The plates were incubated at 25° C. overnight. On the next day the plates were gently rinsed 5 times with distilled water to remove the planktonic bacteria and then dried at room temperature for 10 minutes. Then the biofilm on the walls of the wells was dyed by adding 200 μl, of 3% crystal violet (CV) to the wells. After 15 minutes at room temperature, the plates were gently rinsed 5 times with distilled water to remove excess dye and dried at room temperature for 10 minutes (Djordjevic, Wiedmann & McLandsborough 2002). The dry plates were filled with 200 μl ethanol, covered and gently agitated (Duomax 1030 rocking platform shaker, Heidolph, Kelheim, Germany) for 1 hour. The absorbance of extracted color was measured in a plate reading spectrophotometer (Infinite M200, Tecan, Mannedorf, Switzerland) at 595 nm.
The effect of linking the arm to a peptide, on the antimicrobial activity of the peptides was assessed by measuring the peptide activity in 96-microtitter plates in solution and comparing to activities of the normal peptides. Experiments were performed in water and in 3% NaCl solution. Table 6 presents the antimicrobial activity (IC50) of peptide-arm systems, in water and in 3% NaCl solution. Values were extracted from dose-response curves.
Different concentration solutions of peptides, bought or prepared as detailed in the methods section above, were prepared by diluting a stock solution with 1% ACN. Stock solution was prepared by dissolving water soluble peptides in DDW:PBS1:1. PBS (pH=7.4) was prepared by adding to 800 ml DDW, 8 grams NaCl, 0.2 grams KCl, 1.44 grams Na2HPO4 and 0.2 grams KH2PO4.
To evaluate whether attachment of a tether to the AMPs has an effect on the inhibitory potency, a PEGylated peptide (HS-PEG-D-Modelin-1) was prepared, and its inhibitory potency compared to that of the ‘normal’ peptide All-D-Modelin-1. Peptides were diluted in 2-fold serial dilutions, and the antibacterial activity of the peptides was determined in sterile 96-multititter plates.

[1] abbreviates: peptide in solution, water, 96-microtitter plates, values extracted from dose-response curves.

`N=C(N)NCCC[C@H](NC(=O)CCCCCNC(=O)[C@@H](N)CS)C(=O)N[C@@H](CCCNC(=N)N)C(=O)N[C@@H](Cc1c[nH]c2ccccc12)C(=O)N[C@@H](Cc1c[nH]c2ccccc12)C(=O)N[C@@H](CCCNC(=N)N)C(=O)N[C@@H](Cc1ccccc1)C(N)=O` [CX-Hexapeptide-4, CXRRWWRF-NH2] (H-C[Ahx]RRWWRF-NH2; N-terminus assumed): the “IC50 Normal conditions” value amounted to 80 µg/mL (≈ 65.5 µM) and the “IC50 in 3% Aqueous NaCl” value is greater than 300 µg/mL.
Turning to `CC(C)C[C@H](NC(=O)[C@H](CCCCN)NC(=O)CCCCCNC(=O)[C@@H](N)CS)C(=O)N[C@@H](Cc1c[nH]c2ccccc12)C(=O)N[C@@H](CCCCN)C(=O)N[C@@H](CCCCN)C(=O)N[C@@H](Cc1c[nH]c2ccccc12)C(=O)N[C@@H](C)C(=O)N[C@@H](CCCCN)C(=O)N[C@@H](CCCCN)C(=O)N[C@@H](Cc1c[nH]c2ccccc12)C(=O)N[C@@H](CC(C)C)C(=O)N[C@@H](CCCCN)C(=O)N[C@@H](CC(C)C)C(=O)N[C@@H](Cc1c[nH]c2ccccc12)C(=O)N[C@@H](CCCCN)C(=O)N[C@@H](C)C(=O)N[C@@H](Cc1c[nH]c2ccccc12)C(=O)O` [CX-Modelin-1, CXKLWKKWAKKWLKLWKAW] (H-C[Ahx]KLWKKWAKKWLKLWKAW-OH; N-terminus assumed), the “IC50 Normal conditions” value worked out at 60 µg/mL (≈ 23.6 µM).
For the molecule `N=C(N)NCCC[C@H](NC(=O)[C@H](Cc1c[nH]c2ccccc12)NC(=O)[C@H](Cc1c[nH]c2ccccc12)NC(=O)[C@H](CCCNC(=N)N)NC(=O)[C@@H](N)CCCNC(=N)N)C(=O)N[C@@H](Cc1ccccc1)C(N)=O` [Hexapeptide-4, RRWWRF-NH2, reference compound] (H-RRWWRF-NH2; N-terminus assumed), the “IC50 Normal conditions” value was 60 µg/mL (≈ 59.7 µM) and the “IC50 in 3% Aqueous NaCl” value was found to be 100 µg/mL (≈ 99.5 µM).
`CC(C)C[C@@H](NC(=O)[C@H](N)CCCCN)C(=O)N[C@H](Cc1c[nH]c2ccccc12)C(=O)N[C@H](CCCCN)C(=O)N[C@H](CCCCN)C(=O)N[C@H](Cc1c[nH]c2ccccc12)C(=O)N[C@H](C)C(=O)N[C@H](CCCCN)C(=O)N[C@H](CCCCN)C(=O)N[C@H](Cc1c[nH]c2ccccc12)C(=O)N[C@H](CC(C)C)C(=O)N[C@H](CCCCN)C(=O)N[C@H](CC(C)C)C(=O)N[C@H](Cc1c[nH]c2ccccc12)C(=O)N[C@H](CCCCN)C(=O)N[C@H](C)C(=O)N[C@H](Cc1c[nH]c2ccccc12)C(=O)O` [D-Modelin-1, KLWKKWAKKWLKLWKAW] had an IC50 (repeated assay, D-Modelin-1 (crude) and HS-PEG-D-Modelin-1 prepared in the same synthesis) of 3 µg/mL (≈ 1.29 µM).
`CC(C)C[C@H](NC(=O)[C@H](CCCCN)NC(=O)[C@H](CC(C)C)NC(=O)[C@H](Cc1c[nH]c2ccccc12)NC(=O)[C@H](CCCCN)NC(=O)[C@H](CCCCN)NC(=O)[C@H](C)NC(=O)[C@H](Cc1c[nH]c2ccccc12)NC(=O)[C@H](CCCCN)NC(=O)[C@H](CCCCN)NC(=O)[C@H](Cc1c[nH]c2ccccc12)NC(=O)[C@H](CC(C)C)NC(=O)[C@@H](N)CCCCN)C(=O)N[C@@H](Cc1c[nH]c2ccccc12)C(=O)N[C@@H](CCCCN)C(=O)N[C@@H](C)C(=O)N[C@@H](Cc1c[nH]c2ccccc12)C(=O)O` [Modelin-1, KLWKKWAKKWLKLWKAW, reference compound]: under “peptide in solution, 3% NaCl solution, 96-microtitter plates, values extracted from dose-response curves”, the “IC50 in 3% Aqueous NaCl” value amounted to 100 µg/mL (≈ 43 µM). In addition, the “IC50 Normal conditions” value under setting [1] was determined as 20 µg/mL (≈ 8.59 µM).
As to `CC[C@H](C)[C@H](NC(=O)[C@H](CCCNC(=N)N)NC(=O)CNC(=O)[C@H](CC(C)C)NC(=O)[C@H](Cc1ccccc1)NC(=O)[C@H](CCCCN)NC(=O)[C@H](CO)NC(=O)[C@H](Cc1ccccc1)NC(=O)[C@H](Cc1c[nH]c2ccccc12)NC(=O)[C@H](CCC(N)=O)NC(=O)[C@@H](NC(=O)[C@H](Cc1ccccc1)NC(=O)CCCCCNC(=O)[C@@H](N)CS)C(C)C)C(=O)N[C@@H](CC(C)C)C(N)=O` [CX-Temporin-L, CXFVQWFSKFLGRIL-NH2] (H-C[Ahx]FVQWFSKFLGRIL-NH2), under setting [1], the “IC50 Normal conditions” value is greater than 300 µg/mL.
As for `CC(C)C[C@H](NC(=O)[C@H](CCCCN)NC(=O)CNC(=O)CNC(=O)CNC(=O)CN)C(=O)N[C@@H](Cc1c[nH]c2ccccc12)C(=O)N[C@@H](CCCCN)C(=O)N[C@@H](CCCCN)C(=O)N[C@@H](Cc1c[nH]c2ccccc12)C(=O)N[C@@H](C)C(=O)N[C@@H](CCCCN)C(=O)N[C@@H](CCCCN)C(=O)N[C@@H](Cc1c[nH]c2ccccc12)C(=O)N[C@@H](CC(C)C)C(=O)N[C@@H](CCCCN)C(=O)N[C@@H](CC(C)C)C(=O)N[C@@H](Cc1c[nH]c2ccccc12)C(=O)N[C@@H](CCCCN)C(=O)N[C@@H](C)C(=O)N[C@@H](Cc1c[nH]c2ccccc12)C(=O)O` [Peptide G4-Modelin-1] (H-GGGGKLWKKWAKKWLKLWKAW-OH; N-terminus and C-terminus assumed), the “IC50 Normal conditions” value turned out to be 70 µg/mL (≈ 27.4 µM) and the “IC50 in 3% Aqueous NaCl” value turned out to be 120 µg/mL (≈ 46.9 µM).
Take `CC(C)C[C@H](NC(=O)[C@H](CCCCN)NC(=O)[C@H](Cc1ccccc1)NC(=O)[C@H](CC(C)C)NC(=O)[C@H](CC(C)C)NC(=O)CNC(=O)[C@H](CCCCN)NC(=O)[C@H](CC(C)C)NC(=O)[C@H](CCCCN)NC(=O)[C@@H]1CCCN1C(=O)[C@H](CC(C)C)NC(=O)[C@H](CC(C)C)NC(=O)[C@H](CC(C)C)NC(=O)[C@H](CCCCN)NC(=O)[C@H](CC(C)C)NC(=O)[C@H](CC(C)C)NC(=O)[C@H](CCCCN)NC(=O)[C@H](Cc1ccc(O)cc1)NC(=O)CNC(=O)CNC(=O)CNC(=O)CNC(=O)[C@@H](N)CS)C(N)=O` [CG4-L^6P^9G^13F^16] (H-CGGGGYKLLKLLLPKLKGLLFKL-NH2; N-terminus assumed): the “IC50 Normal conditions” value stood at 110 µg/mL (≈ 44.5 µM) and the “IC50 in 3% Aqueous NaCl” value is greater than 300 µg/mL.
Regarding `CC(C)C[C@H](NC(=O)[C@H](CCCCN)NC(=O)[C@H](Cc1ccccc1)NC(=O)[C@H](CC(C)C)NC(=O)[C@H](CC(C)C)NC(=O)CNC(=O)[C@H](CCCCN)NC(=O)[C@H](CC(C)C)NC(=O)[C@H](CCCCN)NC(=O)[C@@H]1CCCN1C(=O)[C@H](CC(C)C)NC(=O)[C@H](CC(C)C)NC(=O)[C@H](CC(C)C)NC(=O)[C@H](CCCCN)NC(=O)[C@H](CC(C)C)NC(=O)[C@H](CC(C)C)NC(=O)[C@H](CCCCN)NC(=O)[C@@H](N)Cc1ccc(O)cc1)C(N)=O` [L^6P^9G^13F^16, reference compound] (H-YKLLKLLLPKLKGLLFKL-NH2; N-terminus and C-terminus assumed), the “IC50 Normal conditions” value was found to be 40 µg/mL (≈ 18.7 µM) and the “IC50 in 3% Aqueous NaCl” value was 300 µg/mL (≈ 140 µM).

Values taken from patent publication US9175036B2, “Antimicrobial water treatment membranes and production thereof” (BEN-GURION UNVERSITY OF THE NEGEV RESEARCH AND DEVELOPMENT …, priority 2009, dated 2015).
